SMILES strings stand for the structures.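 Interpolation was linear, between the two tested concentrations surrounding the appropriate level; five concentrations were tested over 48 hours in 96-well plates. GI50: concentration for 50% inhibition of growth.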 Activity calls are given as the source filed them. Rule as the data show it: active = GI50 up to about 1.1 µM and inactive = higher.

Common to all, as to assay: NCI anticancer screen, dose series, 48 h
Assay [1] concerns SK-MEL-2.
In assay [2] the test system is OVCAR-8.
In assay [3] the test system is OVCAR-3.
Assay [4] deals with SK-MEL-5.
Assay [5] concerns K562.
Assay [6] has as its system CAKI-1.
The test system of assay [7] is SW-620.
For assay [8], the system named is SK-MEL-28.
Assay [9] relates to HOP-62.
The test system of assay [10] is SK-OV-3.
The test system of assay [11] is EKVX.
Assay [12] deals with SNB-75.
Assay [13] has as its system NCI-H460.
Assay [14] has as its system SNB-19.
Assay [15] concerns UO-31.
For assay [16], the system named is U-251.
Assay [17] concerns CCRF-CEM.
The subject of assay [18] is MCF7.
Assay [19] has as its system SF-295.
Assay [20] concerns TK-10.

On to `Cc1nc(O)nc(O)c1/C=C/C(=O)O`, for which the GI50 in assay [1], in [2], in assay [3], in [4], in [5] and in assay [6] was > 1000 µM (inactive) in each case. Also, the GI50 in assay [7], in [8], in assay [9], in [10], in [11] and in assay [12] was > 1000 µM (inactive) throughout. Also, the GI50 in [13], in [14], in [15], in assay [16], in assay [17] and in assay [18] was > 1000 µM (inactive) in each case. The GI50 in assay [19] was > 1000 µM (inactive).
Take `Cc1cc(NC(=S)Nc2ccccc2)c(NC(=S)Nc2ccccc2)cc1C`: the GI50 in assay [1] was 16.9 µM (inactive); in assay [2], 40.1 µM (inactive); in [3] it was 21.1 µM (inactive); in assay [4], 11.4 µM (inactive); in assay [5] it was 9.44 µM (inactive); in [6], 9.91 µM (inactive). The GI50 is 11.6 µM (inactive) in assay [7]; 38.8 µM (inactive) in [8]; 15.5 µM (inactive) in assay [9]; 35 µM (inactive) in assay [10]; 39.3 µM (inactive) in assay [11]; 27 µM (inactive) in assay [12]. Moreover, the GI50 in assay [13] is 12.9 µM (inactive); in assay [14] it was 47.9 µM (inactive); in [15], 21.6 µM (inactive); in assay [16] it was 15.7 µM (inactive); in [17], 13.5 µM (inactive); in assay [18] it was 26.6 µM (inactive). Moreover, the GI50 in assay [19] was 11.4 µM (inactive).
Consider `CC1=C2C(O)C(C(C)C(=O)N(C)C)CCC2(C)C=CC1=O` (configuration not stated), for which the GI50 in assay [1], in [2], in assay [3], in [4], in assay [5] and in [6] was > 100 µM (inactive) each time. The GI50 in assay [7], in [8], in assay [9], in assay [10], in assay [11] and in assay [12] was > 100 µM (inactive) in each case. The GI50 in assay [13], in assay [14], in assay [15], in [16], in assay [17] and in assay [18] was > 100 µM (inactive) throughout. In addition, in assay [19], the GI50 was > 100 µM (inactive).
Consider `CCN1c2ccccc2-n2c(C)nnc2-c2c(-c3ccccc3)n[nH]c21`, for which the GI50 was 19.7 µM (inactive) in assay [1]; 24.7 µM (inactive) in assay [2]; 36.4 µM (inactive) in assay [3]; 14.5 µM (inactive) in assay [4]; 4.83 µM (inactive) in assay [5]; > 10 µM (inactive) in assay [6]. In addition, the GI50 in assay [7] is 36.2 µM (inactive); in assay [8], 30.5 µM (inactive); in [10], 57.9 µM (inactive); in [11], 49.7 µM (inactive); in assay [12] it was 67 µM (inactive); in assay [13], 27.8 µM (inactive). The GI50 is 42.9 µM (inactive) in assay [14]; 44.8 µM (inactive) in [15]; 41.4 µM (inactive) in assay [20]; 18.5 µM (inactive) in assay [16]; 17.5 µM (inactive) in [17]; > 10 µM (inactive) in assay [18]. In addition, the GI50 in assay [19] is 31 µM (inactive).
Turning to `CC1C(=O)C(C)C(c2ccco2)N(N=O)C1c1ccco1` (configuration not stated), the GI50 in [1], in assay [2], in assay [3], in assay [4], in assay [5] and in [6] was > 100 µM (inactive) each time. Moreover, the GI50 in assay [7] was > 100 µM (inactive); in [8] it was > 100 µM (inactive); in [9], > 100 µM (inactive); in [10], > 100 µM (inactive); in assay [11], > 100 µM (inactive); in assay [12], > 82.8 µM (inactive). Further, the GI50 in [13] was > 100 µM (inactive); in assay [14], > 84.1 µM (inactive); in assay [15] it was > 100 µM (inactive); in assay [16], > 100 µM (inactive); in assay [17], > 100 µM (inactive); in [18] it was > 100 µM (inactive). For the same compound, the GI50 in [19] is > 100 µM (inactive).
In the case of `Cc1nc(Cl)c(C)c(Cl)n1`, the GI50 in [1] is > 100 µM (inactive); in assay [2] it was > 100 µM (inactive); in assay [3], > 100 µM (inactive); in assay [4], > 59 µM (inactive); in [5] it was 18.3 µM (inactive); in assay [6] it was 0.0216 µM (active). Moreover, the GI50 in assay [7] is > 55.8 µM (inactive); in [8], > 93.3 µM (inactive); in assay [9] it was > 77.4 µM (inactive); in [10] it was > 100 µM (inactive); in assay [11] it was > 27 µM (inactive); in assay [12] it was > 100 µM (inactive). Also, the GI50 in [13] was > 100 µM (inactive); in assay [14], > 100 µM (inactive); in [20], > 100 µM (inactive); in assay [16], > 100 µM (inactive); in assay [17], 18.7 µM (inactive); in [18], > 84.5 µM (inactive). Moreover, in assay [19], the GI50 was > 100 µM (inactive).
For `O=C(CCN1CCOCC1)/C(=C/c1ccccc1)c1ccccc1`, the GI50 in [1] was 8.17 µM (inactive); in assay [2] it was 1.95 µM (inactive); in [3], 3.76 µM (inactive); in assay [4], 8.45 µM (inactive); in [5] it was 1.89 µM (inactive); in assay [6], 5.14 µM (inactive). The GI50 was 2.47 µM (inactive) in assay [7]; 5.37 µM (inactive) in [8]; 26.1 µM (inactive) in assay [9]; 19.3 µM (inactive) in assay [10]; 8.18 µM (inactive) in assay [11]; 9.14 µM (inactive) in assay [12]. Also, the GI50 in [13] was 8.95 µM (inactive); in assay [14], 11 µM (inactive); in assay [15], 14 µM (inactive); in assay [16] it was 3.99 µM (inactive); in assay [17] it was 1.98 µM (inactive); in assay [18] it was 4.28 µM (inactive). The GI50 in [19] is 12.3 µM (inactive).
For `CCP(=O)(CC)C(Cl)(Cl)C(O)C(Cl)(Cl)Cl` (configuration not stated), the GI50 in assay [1], in assay [2], in assay [3], in assay [4], in assay [5] and in assay [6] was > 100 µM (inactive) throughout. In addition, the GI50 in assay [7], in assay [8], in assay [9], in [10], in assay [12] and in assay [13] was > 100 µM (inactive) each time. For the same compound, the GI50 in assay [14], in assay [15], in assay [20], in assay [16], in [17] and in [18] was > 100 µM (inactive) throughout. Also, the GI50 in assay [19] was > 100 µM (inactive).

Source of the values: ChEMBL document CHEMBL1201862, “PubChem BioAssay data set” (2004).
